Results as given in ChEMBL document CHEMBL1914411, “Synthesis of lipophilic dimeric C-7/C-7-linked ciprofloxacin and C-6/C-6-linked levofloxacin derivatives. Versatile in vitro biological evaluations of monomeric and dimeric fluoroquinolone derivatives as potential antitumor, antibacterial or antimycobacterial agents” (Eur J Med Chem, 2011).
Converted amounts (≈) assume the structure as drawn. The source made the active and inactive calls. How the calls were made is not given here.

Assays:
[1] = tested on: Escherichia coli; assay: Antimicrobial activity against Escherichia coli CIP 53126 after 18 to 24 hrs by broth microdilution method; type: functional
[2] = tested on: Mycobacterium tuberculosis; assay: Antimycobacterial activity against Mycobacterium tuberculosis H37Rv after 6 days by MTT colorimetric microassay; type: functional, organism-based; conditions: 144 h
[3] = tested on: Pseudomonas aeruginosa; assay: Antimicrobial activity against Pseudomonas aeruginosa CIP 82.118 after 18 to 24 hrs by broth microdilution method; type: functional
[4] = tested on: Enterococcus hirae; assay: Antimicrobial activity against Enterococcus hirae CIP 5855 after 18 to 24 hrs by broth microdilution method; type: functional
[5] = tested on: Mycobacterium tuberculosis; assay: Antimycobacterial activity against Mycobacterium tuberculosis H37Rv assessed as growth inhibition at 10 uM after 6 days by MTT colorimetric microassay; type: functional; conditions: 144 h, read-out: GI
[6] = tested on: Staphylococcus aureus; assay: Antimicrobial activity against Staphylococcus aureus CIP 4.83 after 18 to 24 hrs by broth microdilution method; type: functional
[7] = tested on: Mycobacterium tuberculosis; assay: Antimycobacterial activity against Mycobacterium tuberculosis H37Rv assessed as growth inhibition at 0.1 uM after 6 days by MTT colorimetric microassay; type: functional, organism-based
[8] = Solubility of compound in cell medium at 20 uM at 37 degC after 24 hrs; type: physicochemical
[9] = tested on: MCF7; assay: Antiproliferative activity against human MCF7 cells after 120 hrs by MTT asasy; type: functional, cell-based; conditions: MCF7, 120 h
[10] = tested on: A549; assay: Antiproliferative activity against human A549 cells after 120 hrs by MTT asasy; type: functional, cell-based; conditions: A549, 120 h
[11] = tested on: PC-3; assay: Antiproliferative activity against human PC3 cells after 120 hrs by MTT asasy; type: functional, cell-based; conditions: PC-3, 120 h
[12] = tested on: Mycobacterium tuberculosis; assay: Antimycobacterial activity against Mycobacterium tuberculosis H37Rv assessed as growth inhibition at 1 uM after 6 days by MTT colorimetric microassay; type: functional; conditions: 144 h, read-out: GI
[13] = Antiproliferative activity against human U373MG cells after 120 hrs by MTT asasy; type: functional, cell-based, U-373MG ATCC; conditions: U373 MG
[14] = tested on: Staphylococcus aureus; assay: Ratio of ciprofloxacin MIC to compound MIC for methicillin-resistant Staphylococcus aureus ATCC 33592; type: functional
[15] = tested on: Staphylococcus aureus; assay: Antimicrobial activity against multidrug-resistant Staphylococcus aureus isolate 1 after 18 to 24 hrs by broth microdilution method; type: functional
[16] = tested on: Staphylococcus aureus; assay: Antimicrobial activity against methicillin-resistant Staphylococcus aureus ATCC 33592 after 18 to 24 hrs by broth microdilution method; type: functional
[17] = tested on: Staphylococcus aureus; assay: Antimicrobial activity against methicillin-resistant Staphylococcus aureus ATCC 33591 after 18 to 24 hrs by broth microdilution method; type: functional
[18] = tested on: Staphylococcus aureus; assay: Antimicrobial activity against multidrug-resistant Staphylococcus aureus isolate 2 after 18 to 24 hrs by broth microdilution method; type: functional
[19] = tested on: LoVo; assay: Antiproliferative activity against human LoVo cells after 120 hrs by MTT asasy; type: functional, cell-based

SMILES: C[C@H]1COc2c(N3CCN(C)CC3)c(F)cc3c(=O)c(C(=O)NCCCCCCCCCCCCNC(=O)c4cn5c6c(c(N7CCN(C)CC7)c(F)cc6c4=O)OC[C@@H]5C)cn1c23
- MBC [1]: ≤ 0.97 µM
- MIC [1]: ≤ 0.97 µM
- IC50 [2]: 2100 nM
- MIC [2]: 5 µM (≈ 4.44 µg/mL)
- MBC [3]: 31.2 µM (≈ 27.7 µg/mL)
- MIC [3]: 31.2 µM (≈ 27.7 µg/mL)
- MBC [4]: 3.9 µM (≈ 3.46 µg/mL)
- MIC [4]: 3.9 µM (≈ 3.46 µg/mL)
- inhibition of growth at 10 µM [5]: 60%
- MBC [6]: 1.9 µM (≈ 1.69 µg/mL)
- MIC [6]: 1.9 µM (≈ 1.69 µg/mL)
- growth inhibition (GI) [7]: inactive
- solubility [8]: Insoluble

SMILES: C[C@H]1COc2c(N3CCN(C)CC3)c(F)cc3c(=O)c(C(=O)O)cn1c23 [LEVOFLOXACIN]
- MBC [1]: ≤ 0.97 µM
- MIC [1]: ≤ 0.97 µM
- IC50 [9]: 67000 nM
- IC50 [2]: 800 nM
- MIC [2]: 2.5 µM (≈ 0.903 µg/mL)
- IC50 [10]: 67000 nM
- MBC [3]: ≤ 0.97 µM
- MIC [3]: ≤ 0.97 µM
- IC50 [11]: 67000 nM
- MBC [4]: 1.9 µM (≈ 0.687 µg/mL)
- MIC [4]: ≤ 0.97 µM
- inhibition of growth at 10 µM [5]: 96%
- MBC [6]: ≤ 0.97 µM
- MIC [6]: ≤ 0.97 µM
- growth inhibition (GI) [7]: inactive
- inhibition of growth at 1 µM [12]: 85%
- IC50 [13]: 67000 nM

SMILES: O=C(O)c1cn(C2CC2)c2cc(N3CCN(C(=O)CCCCCCCCCCCCCC(=O)N4CCN(c5cc6c(cc5F)c(=O)c(C(=O)O)cn6C5CC5)CC4)CC3)c(F)cc2c1=O
- MBC [1]: 500 µM (≈ 450 µg/mL)
- MIC [1]: 62.5 µM (≈ 56.2 µg/mL)
- MBC [3]: 250 µM (≈ 225 µg/mL)
- MIC [3]: 62.5 µM (≈ 56.2 µg/mL)
- MBC [4]: 500 µM (≈ 450 µg/mL)
- MIC [4]: 125 µM (≈ 112 µg/mL)
- inhibition of growth at 10 µM [5]: 40%
- Ratio [14]: 8
- MBC [6]: 1.9 µM (≈ 1.71 µg/mL)
- MIC [6]: ≤ 0.06 µM
- growth inhibition (GI) [7]: inactive
- MBC [15]: 500 µM (≈ 450 µg/mL)
- MIC [15]: 1.9 µM (≈ 1.71 µg/mL)
- MBC [16]: 0.48 µM (≈ 0.432 µg/mL)
- MIC [16]: 0.06 µM (≈ 0.0539 µg/mL)
- MBC [17]: 0.97 µM (≈ 0.872 µg/mL)
- MIC [17]: 0.06 µM (≈ 0.0539 µg/mL)
- MBC [18]: 31.2 µM (≈ 28.1 µg/mL)
- MIC [18]: 15.6 µM (≈ 14 µg/mL)

SMILES: CCCCOC(=O)N1CCN(c2cc3c(cc2F)c(=O)c(C(=O)O)cn3C2CC2)CC1
- MBC [1]: 31.2 µM (≈ 13.5 µg/mL)
- MIC [1]: 7.8 µM (≈ 3.37 µg/mL)
- MBC [3]: 250 µM (≈ 108 µg/mL)
- MIC [3]: 62.5 µM (≈ 27 µg/mL)
- MBC [4]: 7.8 µM (≈ 3.37 µg/mL)
- MIC [4]: 3.9 µM (≈ 1.68 µg/mL)
- Ratio [14]: 63
- MBC [6]: ≤ 0.12 µM
- MIC [6]: ≤ 0.06 µM
- growth inhibition (GI) [7]: inactive
- MBC [15]: 500 µM (≈ 216 µg/mL)
- MIC [15]: 62.5 µM (≈ 27 µg/mL)
- MBC [16]: 0.12 µM (≈ 0.0518 µg/mL)
- IC50 [13]: 31000 nM
- MBC [17]: 0.12 µM (≈ 0.0518 µg/mL)
- MIC [17]: 0.03 µM (≈ 0.0129 µg/mL)
- MBC [18]: 31.2 µM (≈ 13.5 µg/mL)
- MIC [18]: 31.2 µM (≈ 13.5 µg/mL)

SMILES: C[C@H]1COc2c(N3CCN(C)CC3)c(F)cc3c(=O)c(C(=O)NCCCCCCCCCNC(=O)c4cn5c6c(c(N7CCN(C)CC7)c(F)cc6c4=O)OC[C@@H]5C)cn1c23
- MBC [1]: 3.9 µM (≈ 3.3 µg/mL)
- MIC [1]: 3.9 µM (≈ 3.3 µg/mL)
- IC50 [9]: 200 nM
- IC50 [2]: 2500 nM
- MIC [2]: 5 µM (≈ 4.23 µg/mL)
- IC50 [10]: 200 nM
- IC50 [19]: 200 nM
- MBC [3]: 250 µM (≈ 211 µg/mL)
- MIC [3]: 62.5 µM (≈ 52.8 µg/mL)
- IC50 [11]: 200 nM
- MBC [4]: 31.2 µM (≈ 26.4 µg/mL)
- MIC [4]: 31.2 µM (≈ 26.4 µg/mL)
- inhibition of growth at 10 µM [5]: 60%
- MBC [6]: 31.2 µM (≈ 26.4 µg/mL)
- MIC [6]: 31.2 µM (≈ 26.4 µg/mL)
- growth inhibition (GI) [7]: inactive
- inhibition of growth at 1 µM [12]: 20%
- solubility [8]: soluble
- IC50 [13]: 200 nM

SMILES: C[C@H]1COc2c(N3CCN(C)CC3)c(F)cc3c(=O)c(C(=O)NCCCCCCCCCCNC(=O)c4cn5c6c(c(N7CCN(C)CC7)c(F)cc6c4=O)OC[C@@H]5C)cn1c23
- MBC [1]: ≤ 0.97 µM
- MIC [1]: ≤ 0.97 µM
- IC50 [2]: 2400 nM
- MIC [2]: 5 µM (≈ 4.3 µg/mL)
- MBC [3]: 62.5 µM (≈ 53.7 µg/mL)
- MIC [3]: 31.2 µM (≈ 26.8 µg/mL)
- MBC [4]: 62.5 µM (≈ 53.7 µg/mL)
- MIC [4]: 31.2 µM (≈ 26.8 µg/mL)
- inhibition of growth at 10 µM [5]: 60%
- MBC [6]: 7.8 µM (≈ 6.7 µg/mL)
- MIC [6]: 7.8 µM (≈ 6.7 µg/mL)
- growth inhibition (GI) [7]: inactive
- solubility [8]: Insoluble
